Biological target: human PAD4 (hPAD4) (Homo sapiens (Human), UniProt Q9UM07)
Test: RFMS Human PAD4 Functional Assay 1
Format: biochemical
Conditions: RFMS assay 1; 5 nM hPAD4, 250 μM BAEE substrate, 50 μM calcium, 37° C.
Summary of the method: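 Citrullination product read by RapidFire triple-quad MRM against a modified-citrulline internal standard, after TCA stop and 30 min phenyl glyoxal step at 37 °C. Reaction: 250 μM BAEE, 5 nM human PAD4, 90 min at 37 °C, pH 7.5 HEPES buffer with 50 μM calcium and 5 μM TPEN, following 30 min compound–enzyme preincubation (max 50 μM).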

Chain of human PAD4 (hPAD4) (Q9UM07 whole entry): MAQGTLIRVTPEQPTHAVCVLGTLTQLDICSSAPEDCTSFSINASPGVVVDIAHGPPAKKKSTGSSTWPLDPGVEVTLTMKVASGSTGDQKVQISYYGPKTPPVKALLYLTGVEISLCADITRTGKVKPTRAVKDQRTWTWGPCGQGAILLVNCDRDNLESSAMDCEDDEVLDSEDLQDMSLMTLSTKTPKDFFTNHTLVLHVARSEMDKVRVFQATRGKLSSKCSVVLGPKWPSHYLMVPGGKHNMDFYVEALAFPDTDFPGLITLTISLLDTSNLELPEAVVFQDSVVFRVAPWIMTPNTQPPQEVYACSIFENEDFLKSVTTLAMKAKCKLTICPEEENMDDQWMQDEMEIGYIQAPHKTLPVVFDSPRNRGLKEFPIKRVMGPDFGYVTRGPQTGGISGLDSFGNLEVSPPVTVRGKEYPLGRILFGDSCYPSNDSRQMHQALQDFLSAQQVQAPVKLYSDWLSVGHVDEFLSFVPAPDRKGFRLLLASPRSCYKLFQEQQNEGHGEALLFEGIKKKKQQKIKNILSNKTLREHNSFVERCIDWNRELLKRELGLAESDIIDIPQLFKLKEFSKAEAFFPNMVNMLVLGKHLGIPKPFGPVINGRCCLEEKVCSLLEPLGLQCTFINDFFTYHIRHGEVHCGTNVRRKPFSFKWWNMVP

| IC50 | Structure (SMILES) |
| --- | --- |
| 0.181 µM | Cc1c(-c2cc3ccc(-c4cccc(O)c4F)nc3n2CC2CC2)oc2cc(C(=O)N3CC4CCC3[C@@H]4N)ccc12 (stereo partly drawn) [Example 169, ((7R)-7-Amino-2-azabicyclo[2.2.1]heptan-2-yl)(2-(1-(cyclopropylmethyl)-6-(2-fluoro-3-hydroxyphenyl)-1H-pyrrolo[2,3-b]pyridin-2-yl)-3-methylbenzofuran-6-yl)methanone] |
| 0.135 µM | Cc1c(-c2cc3ccc(-c4ccc(C(N)=O)c(F)c4)nc3n2CC2CC2)oc2cc(C(=O)N3CC4CCC3[C@@H]4N)ccc12 (stereo partly drawn) [Example 170, 4-(2-(6-((7R)-7-amino-2-azabicyclo[2.2.1]heptane-2-carbonyl)-3-methylbenzofuran-2-yl)-1-(cyclopropylmethyl)-1H-pyrrolo[2,3-b]pyridin-6-yl)-2-fluorobenzamide] |
| 0.076 µM | Cc1ccc2cc(-c3oc4cc(C(=O)N5CC6CCC5[C@@H]6N)ccc4c3C)n(CC3CC3)c2n1 (stereo partly drawn) [Example 171, ((7R)-7-Amino-2-azabicyclo[2.2.1]heptan-2-yl)(2-(1-(cyclopropylmethyl)-6-methyl-1H-pyrrolo[2,3-b]pyridin-2-yl)-3-methylbenzofuran-6-yl)methanone] |
| 8.77 µM | COc1cc(-c2ccc3cc(-c4oc5cc(C(=O)N6CC7CCC6[C@@H]7N)ccc5c4C)n(CC4CC4)c3n2)ccn1 (stereo partly drawn) [Example 172, ((7R)-7-Amino-2-azabicyclo[2.2.1]heptan-2-yl)(2-(1-(cyclopropylmethyl)-6-(2-methoxypyridin-4-yl)-1H-pyrrolo[2,3-b]pyridin-2-yl)-3-methylbenzofuran-6-yl)methanone] |
| 0.09 µM | COC1CN(c2ccc3cc(-c4oc5cc(C(=O)N6CC7CCC6[C@@H]7N)ccc5c4C)n(CC4CC4)c3n2)C1 (stereo partly drawn) [Example 173, ((7R)-7-Amino-2-azabicyclo[2.2.1]heptan-2-yl)(2-(1-(cyclopropylmethyl)-6-(3-methoxyazetidin-1-yl)-1H-pyrrolo[2,3-b]pyridin-2-yl)-3-methylbenzofuran-6-yl)methanone] |
| 0.204 µM | Cc1c(-c2cc3cccnc3n2CC2CC2)oc2cc(C(=O)N3C[C@H](N)C[C@@H](F)C3)ccc12 [Example 174, ((3R,5R)-3-Amino-5-fluoropiperidin-1-yl)(2-(1-(cyclopropylmethyl)-1H-pyrrolo[2,3-b]pyridin-2-yl)-3-methylbenzofuran-6-yl)methanone] |
| 0.83 µM | Cc1c(-c2cc3ccc(-c4ccc5c(c4)C(=O)NC5)nc3n2CC2CC2)oc2cc(C(=O)N3C[C@H](N)C[C@@H](F)C3)ccc12 [Example 175, 6-(2-(6-((3R,5R)-3-Amino-5-fluoropiperidine-1-carbonyl)-3-methylbenzofuran-2-yl)-1-(cyclopropylmethyl)-1H-pyrrolo[2,3-b]pyridin-6-yl)isoindolin-1-one] |
| 0.229 µM | Cc1c(-c2cc3ccccc3n2CC2CC2)oc2cc(C(=O)N3CC4CCC3[C@@H]4N)ccc12 (stereo partly drawn) [Example 176, ((7R)-7-Amino-2-azabicyclo[2.2.1]heptan-2-yl)(2-(1-(cyclopropylmethyl)-1H-indol-2-yl)-3-methylbenzofuran-6-yl)methanone] |
| 0.069 µM | Cc1c(-c2cc3ccc(-c4ccc5c(c4)C(=O)NC5)cc3n2CC2CC2)oc2cc(C(=O)N3CC4CCC3[C@@H]4N)ccc12 (stereo partly drawn) [Example 177, 6-(2-(6-((7R)-7-Amino-2-azabicyclo[2.2.1]heptane-2-carbonyl)-3-methylbenzofuran-2-yl)-1-(cyclopropylmethyl)-1H-indol-6-yl)isoindolin-1-one] |
| 0.153 µM | Cc1c(-c2cc3ccc(-c4ccc5c(c4)CNC5=O)cc3n2CC2CC2)oc2cc(C(=O)N3CC4CCC3[C@@H]4N)ccc12 (stereo partly drawn) [Example 178, 5-(2-(6-((7R)-7-Amino-2-azabicyclo[2.2.1]heptane-2-carbonyl)-3-methylbenzofuran-2-yl)-1-(cyclopropylmethyl)-1H-indol-6-yl)isoindolin-1-one] |
| 0.035 µM | Cc1c(-c2cc3ccc(-c4ccn5c(C)nnc5c4)cc3n2CC2CC2)oc2cc(C(=O)N3CC4CCC3[C@@H]4N)ccc12 (stereo partly drawn) [Example 179, ((7R)-7-Amino-2-azabicyclo[2.2.1]heptan-2-yl)(2-(1-(cyclopropylmethyl)-6-(3-methyl-[1,2,4]triazolo[4,3-a]pyridin-7-yl)-1H-indol-2-yl)-3-methylbenzofuran-6-yl)methanone] |
| 0.22 µM | Cc1c(-c2cc3ccc(-c4cnn(C(C)C)c4)cc3n2CC2CC2)oc2cc(C(=O)N3CC4CCC3[C@@H]4N)ccc12 (stereo partly drawn) [Example 180, ((7R)-7-Amino-2-azabicyclo[2.2.1]heptan-2-yl)(2-(1-(cyclopropylmethyl)-6-(1-isopropyl-1H-pyrazol-4-yl)-1H-indol-2-yl)-3-methylbenzofuran-6-yl)methanone] |
| 0.269 µM | Cc1c(-c2cc3ccc(-c4cccc(O)c4F)cc3n2CC2CC2)oc2cc(C(=O)N3CC4CCC3[C@@H]4N)ccc12 (stereo partly drawn) [Example 181, ((7R)-7-Amino-2-azabicyclo[2.2.1]heptan-2-yl)(2-(1-(cyclopropylmethyl)-6-(2-fluoro-3-hydroxyphenyl)-1H-indol-2-yl)-3-methylbenzofuran-6-yl)methanone] |
| 0.923 µM | Cc1c(-c2cc3ccc(-c4ccc(O)c(F)c4)cc3n2CC2CC2)oc2cc(C(=O)N3CC4CCC3[C@@H]4N)ccc12 (stereo partly drawn) [Example 182, ((7R)-7-Amino-2-azabicyclo[2.2.1]heptan-2-yl)(2-(1-(cyclopropylmethyl)-6-(3-fluoro-4-hydroxyphenyl)-1H-indol-2-yl)-3-methylbenzofuran-6-yl)methanone] |
| 0.088 µM | Cc1c(-c2cc3ccc(-c4ccc(C(N)=O)c(Cl)c4)cc3n2CC2CC2)oc2cc(C(=O)N3CC4CCC3[C@@H]4N)ccc12 (stereo partly drawn) [Example 183, 4-(2-(6-((7R)-7-Amino-2-azabicyclo[2.2.1]heptane-2-carbonyl)-3-methylbenzofuran-2-yl)-1-(cyclopropylmethyl)-1H-indol-6-yl)-2-chlorobenzamide] |
| 0.05 µM | Cc1ccc2cc(-c3oc4cc(C(=O)N5CC6CCC5[C@@H]6N)ccc4c3C)n(CC3CC3)c2c1 (stereo partly drawn) [Example 184, ((7R)-7-Amino-2-azabicyclo[2.2.1]heptan-2-yl)(2-(1-(cyclopropylmethyl)-6-methyl-1H-indol-2-yl)-3-methylbenzofuran-6-yl)methanone] |
| 0.025 µM | Cc1c(-c2cc3ccc(-c4ccc(C(N)=O)c(F)c4)cc3n2CC2CC2)oc2cc(C(=O)N3CC4CCC3[C@@H]4N)ccc12 (stereo partly drawn) [Example 185, 4-(2-(6-((7R)-7-Amino-2-azabicyclo[2.2.1]heptane-2-carbonyl)-3-methylbenzofuran-2-yl)-1-(cyclopropylmethyl)-1H-indol-6-yl)-2-fluorobenzamide] |
| 0.056 µM | COc1cc(-c2ccc3cc(-c4oc5cc(C(=O)N6CC7CCC6[C@@H]7N)ccc5c4C)n(CC4CC4)c3c2)ccn1 (stereo partly drawn) [Example 186, ((7R)-7-Amino-2-azabicyclo[2.2.1]heptan-2-yl)(2-(1-(cyclopropylmethyl)-6-(2-methoxypyridin-4-yl)-1H-indol-2-yl)-3-methylbenzofuran-6-yl)methanone] |
| 1.55 µM | Cc1c(-c2cc3ccc(C4CC4)cc3n2CC2CC2)oc2cc(C(=O)N3CC4CCC3[C@@H]4N)ccc12 (stereo partly drawn) [Example 187, ((7R)-7-Amino-2-azabicyclo[2.2.1]heptan-2-yl)(2-(6-cyclopropyl-1-(cyclopropylmethyl)-1H-indol-2-yl)-3-methylbenzofuran-6-yl)methanone] |
| 0.081 µM | Cc1cc(-c2ccc3cc(-c4oc5cc(C(=O)N6CC7CCC6[C@@H]7N)ccc5c4C)n(CC4CC4)c3c2)cnc1C(N)=O (stereo partly drawn) [Example 188, 5-(2-(6-((7R)-7-Amino-2-azabicyclo[2.2.1]heptane-2-carbonyl)-3-methylbenzofuran-2-yl)-1-(cyclopropylmethyl)-1H-indol-6-yl)-3-methylpicolinamide] |
| 0.03 µM | COC1CCN(c2ccc3cc(-c4oc5cc(C(=O)N6CC7CCC6[C@@H]7N)ccc5c4C)n(CC4CC4)c3c2)CC1 (stereo partly drawn) [Example 189, ((7R)-7-Amino-2-azabicyclo[2.2.1]heptan-2-yl)(2-(1-(cyclopropylmethyl)-6-(4-methoxypiperidin-1-yl)-1H-indol-2-yl)-3-methylbenzofuran-6-yl)methanone] |
| 0.058 µM | COC1CN(c2ccc3cc(-c4oc5cc(C(=O)N6CC7CCC6[C@@H]7N)ccc5c4C)n(CC4CC4)c3c2)C1 (stereo partly drawn) [Example 190, ((7R)-7-Amino-2-azabicyclo[2.2.1]heptan-2-yl)(2-(1-(cyclopropylmethyl)-6-(3-methoxyazetidin-1-yl)-1H-indol-2-yl)-3-methylbenzofuran-6-yl)methanone] |
| 0.02 µM | Cc1c(-c2cc3ccc(N4CCC(N)CC4)cc3n2CC2CC2)oc2cc(C(=O)N3CC4CCC3[C@@H]4N)ccc12 (stereo partly drawn) [Example 191, ((7R)-7-Amino-2-azabicyclo[2.2.1]heptan-2-yl)(2-(6-(4-aminopiperidin-1-yl)-1-(cyclopropylmethyl)-1H-indol-2-yl)-3-methylbenzofuran-6-yl)methanone] |
| 0.093 µM | Cc1c(-c2cc3ccc(N4CCNCC4)cc3n2CC2CC2)oc2cc(C(=O)N3CC4CCC3[C@@H]4N)ccc12 (stereo partly drawn) [Example 192, ((7R)-7-Amino-2-azabicyclo[2.2.1]heptan-2-yl)(2-(1-(cyclopropylmethyl)-6-(piperazin-1-yl)-1H-indol-2-yl)-3-methylbenzofuran-6-yl)methanone] |
| 0.334 µM | Cc1c(-c2cc3ccc(N4CCNCC4=O)cc3n2CC2CC2)oc2cc(C(=O)N3CC4CCC3[C@@H]4N)ccc12 (stereo partly drawn) [Example 193, 1-(2-(6-((7R)-7-Amino-2-azabicyclo[2.2.1]heptane-2-carbonyl)-3-methylbenzofuran-2-yl)-1-(cyclopropylmethyl)-1H-indol-6-yl)piperazin-2-one] |
| 1.8 µM | Cc1c(-c2cc3ccccc3n2CC2CC2)oc2cc(C(=O)N3C[C@H](N)C[C@@H](F)C3)ccc12 [Example 194, ((3R,5R)-3-Amino-5-fluoropiperidin-1-yl)(2-(1-(cyclopropylmethyl)-1H-indol-2-yl)-3-methylbenzofuran-6-yl)methanone] |
